Data published in patent US4988688A, “4-(N-substituted amino)-2-butynyl-1-ureas and thioureas and derivatives thereof as centrally acting muscarinic agents” (Warner-Lambert Company, priority 1989, dated 1991).
Where a name gives a salt, the structure may show the parent alone. Read-outs that look alike come from different tables or passages of the source.

Assays:
[1] = tested on: age-related cognitive deficits; details: increasing acetylcholine release from presynaptic nerve terminals; cited from earlier work
[2] = biological target: central muscarinic agonist site; assay: Receptor [^3H]Cis-methyldioxalane Assay (RCMD); type: binding; details: rat cerebral cortex tissue; radiolabeled cis-methyldioxalane; head prints (0.1 μm)
[3] = tested on: central muscarinic antagonist site; type: binding, rat; details: read-out: RQNB (1 μM) IC50
[4] = tested on: human SK-N-SH cells bearing muscarinic binding sites
Method: In the Muscarinic Induced Inositol Phosphate Accumulation Assay (MIPA) human SK-N-SH cells bearing muscarinic binding sites are incubated with the test compound. The production of inositol phosphates is then measured. Stimulation of inositol phosphate turnover reflects the degree of muscarinic agonist activity of the test compound. The concentration of test compound required to produce a response 50% of the maximum is then determined.

mice = details: cited from earlier work
[5] = tested on: aged humans and nonhuman primates; details: aged humans and nonhuman primates with decreased cognition; acetylcholinesterase inhibitors such as physostigmine; cited from earlier work

## Nc1ccncc1N [3,4-diaminopyridine]
[1]
  effect on age-related cognitive deficits: ameliorate age-related cognitive deficits

## CNC(=O)N(C)CC#CCN(C)C.Cl [Example 2, N-[4-(Dimethylamino)-2-butynyl]-N,N'-dimethyl-urea, monohydrochloride]
[2]
  IC50: 0.275 µM
[3]; rat cerebral cortex tissue, radiolabeled quinuclidinyl benzilate, head prints (1 μM)
  IC50: 100 µM
[4]
  MIPA (ED50): 1.84 × 10^-5

## C(#CCN1CCCC1)CN1CCCC1 [tremorine, 1,4-dipyrrolidino-2-butyne]
mice
  tremor of the head and limbs and its duration: profound tremor of the head and limbs lasting for more than one hour

## CNC(=O)Oc1ccc2c(c1)[C@]1(C)CCN(C)[C@@H]1N2C [physostigmine]
[5]
  memory improvement: improved memory

## CNC(=O)N(C)CC#CCN1CCCC1 [Example 1a, N,N'-Dimethyl-N-4-(1-pyrrolidinyl)-2-butynyl]-urea, hydrochloride]
[2]
  IC50: 0.0434 µM
[3]
  IC50: 8.79 µM
[4]
  MIPA (ED50): 2.91 × 10^-5
